Source: patent US20250332173A1, “COMPOUNDS AND METHODS FOR MODULATING NUCLEIC ACID SPLICING” (REMIX THERAPEUTICS INC., priority 2021, published 2025)
Like-named read-outs stand apart in the source and are kept apart here.

How the values were obtained:
Target C [1] = assay: HiBiT protein abundance assay, Target C HiBiT K562 cell line; format: cell-based; details: Homo sapiens; HiBiT lytic detection, modified K562 cells, 24 hours, top dose 10 μM; read-out: Effect on protein abundance, Target C (IC50)
Outline: (§1)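 Protein abundance was read by Nano-Glo HiBiT lytic luminescence after 24 h compound exposure (10-point, threefold series from 10 μM final) of HiBiT knock-in K562 cells. Parental K562 served as baseline; the 50%-abundance concentration was interpolated from a four-parameter logistic fit.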

HTT mRNA = assay: RT-qPCR splicing assay, HTT canonical junction (CJ) and alternative junction (AJ) mRNA; format: cell-based, human; details: Homo sapiens; for AC50: increase in HTT alternative junction (AJ) mRNA, read-out: HTT AJ AC50
Outline: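 Splicing switches were read by TaqMan RT-qPCR on lysates, quantifying exon-exon junctions of the canonical and alternative-exon isoforms. Lysates came from K562 (GAPDH/GUSB reference) or A673 (PPIA reference) cells exposed 24 h to compound in 11 threefold steps from 10 uM, with DMSO ≤0.25%.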

Target C [2] = assay: HiBiT protein abundance assay, Target C (Promega Nano-Glo HiBiT Lytic Detection System, knock-in K562 cell line); format: cell-based, human; details: Homo sapiens, K562, 24 h, HiBiT K562 cell line, 24 hours, top dose 10 μM; read-out: Effect on protein abundance, Target C (IC50 category)
Outline: as §1

[3] = decrease in HTT canonical junction (CJ) mRNA, RT-qPCR, read-out: HTT CJ IC50
[4] = canonical junction qPCR panel, Table 5, read-out: HTT (decrease in CJ mRNA levels, IC50)

Row | Structure (SMILES) | IC50 (Target C [1]) [nM] | IC50 (HTT mRNA; [3]) [nM] | AC50 (HTT mRNA; RT-qPCR) [nM] | IC50 (HTT mRNA; [4]) [nM] | IC50 (Target C [2]) [nM]
1 | Cc1cn2nc(-c3ccc4c(=O)n(C5CC(C)N[C@H](C)C5)ncc4n3)cc(C)c2n1 (stereo in doubt) [Compound 1536, 2-(2,8-dimethylimidazo[1,2-b]pyridazin-6-yl)-6-[(2S,6R)-2,6-dimethyl-4-piperidyl]pyrido[2,3-d]pyridazin-5-one] | 100 to 1000 | 100 to 1000 | 100 to 1000 | 100 to 1000 | –
2 | Cc1c(O)c(-c2ncc3c(=O)n([C@H]4CCN[C@H](C)C4)ccc3n2)cc2cn(C)nc12 [Compound 1461, 2-(6-hydroxy-2,7-dimethyl-indazol-5-yl)-6-[(2R,4S)-2-methyl-4-piperidyl]pyrido[4,3-d]pyrimidin-5-one] | – | 100 to 1000 | 100 to 1000 | 100 to 1000 | 100 to 1000
3 | Cc1c(O)c(-c2ncc3c(=O)n([C@@H]4CCN[C@@H](C)C4)ccc3n2)cc2cn(C)nc12 [Compound 1462, 2-(6-hydroxy-2,7-dimethyl-indazol-5-yl)-6-[(2S,4R)-2-methyl-4-piperidyl]pyrido[4,3-d]pyrimidin-5-one] | – | 100 to 1000 | 100 to 1000 | 100 to 1000 | 100 to 1000
4 | Cc1c(O)c(-c2ccc3c(=O)n([C@@H]4C[C@@H](C)N[C@@H](C)C4)ccc3n2)cc2cn(C)nc12 [Compound 1463, 6-[(2S,6R)-2,6-dimethyl-4-piperidyl]-2-(6-hydroxy-2,7-dimethyl-indazol-5-yl)-1,6-naphthyridin-5-one] | – | 1000 to 10000 | 100 to 1000 | 100 to 1000 | 1000 to 10000
5 | Cc1c(O)c(-c2ccc3c(=O)n([C@H]4C[C@@H](C)N[C@@H](C)C4)ccc3n2)cc2cn(C)nc12 [Compound 1464, 6-[(2S,6R)-2,6-dimethyl-4-piperidyl]-2-(6-hydroxy-2,7-dimethyl-indazol-5-yl)-1,6-naphthyridin-5-one] | – | 100 to 1000 | 100 to 1000 | 100 to 1000 | 100 to 1000
6 | Cn1cc2cc(-c3ncc4c(=O)n([C@H]5CCNC5)ccc4n3)c(O)c(F)c2n1 [Compound 1465] | – | 100 to 1000 | 100 to 1000 | 100 to 1000 | 100 to 1000
7 | Cn1cc2cc(-c3ncc4c(=O)n([C@@H]5CCNC5)ccc4n3)c(O)c(F)c2n1 [Compound 1466] | 100 to 1000 | 100 to 1000 | 100 to 1000 | 100 to 1000 | –
8 | Cc1c(O)c(-c2ccc3c(=O)n(C4CCNC4)cc(C)c3n2)cc2cn(C)nc12 (centres unmarked) [Compound 1467] | 1000 to 10000 | > 10000 | 1000 to 10000 | 1000 to 10000 | –
9 | Cn1cc2cc(-c3ncc4c(=O)n(C56CCC(N)(CC5)C6)ccc4n3)c(O)c(F)c2n1 [Compound 1468] | 100 to 1000 | 100 to 1000 | 100 to 1000 | 100 to 1000 | –
10 | Cc1cn2cc(-c3ncc4c(=O)n(C56CCC(N)(CC5)C6)ccc4n3)cc(F)c2n1 [Compound 1469, 6-(4-aminonorbornane-1-yl)-2-(8-fluoro-2-methyl-imidazo[1,2-a]pyridin-6-yl)pyrido[4,3-d]pyrimidin-5-one] | 1000 to 10000 | 1000 to 10000 | 1000 to 10000 | 1000 to 10000 | –
11 | Cn1cc2cc(-c3ncc4c(=O)n(C56CCC(N)(CC5)C6)ccc4n3)c(O)cc2n1 [Compound 1470] | 1000 to 10000 | > 10000 | 1000 to 10000 | 1000 to 10000 | –
12 | Cc1c(O)c(-c2ncc3c(=O)n([C@@H]4C[C@H]5COC[C@@H](C4)N5)ccc3n2)cc2cn(C)nc12 [Compound 1471] | 100 to 1000 | 100 to 1000 | 100 to 1000 | 100 to 1000 | –
13 | Cc1c(O)c(-c2ncc3c(=O)n([C@@H]4CC[C@@H](N)C4)ccc3n2)cc2cn(C)nc12 [Compound 1476, 6-[(1R,3R)-3-aminocyclopentyl]-2-(6-hydroxy-2,7-dimethyl-indazol-5-yl)pyrido[4,3-d]pyrimidin-5-one] | 1000 to 10000 | 1000 to 10000 | 100 to 1000 | 100 to 1000 | –
14 | Cc1c(O)c(-c2ncc3c(=O)n([C@@H]4CC[C@H](N)C4)ccc3n2)cc2cn(C)nc12 [Compound 1477] | 100 to 1000 | 100 to 1000 | < 100 | < 100 | –
15 | CNC12CCC(n3ccc4nc(-c5cc6cn(C)nc6c(C)c5O)ncc4c3=O)(CC1)C2 [Compound 1479] | 1000 to 10000 | 1000 to 10000 | 1000 to 10000 | 1000 to 10000 | –
16 | Cc1c(O)c(-c2ncc3c(=O)n([C@H]4CCNC5(CC5)C4)ccc3n2)cc2cn(C)nc12 [Compound 1512] | 100 to 1000 | 100 to 1000 | 100 to 1000 | 100 to 1000 | –
17 | Cc1c(O)c(-c2nc(C)c3c(=O)n([C@@H]4CCNC5(CC5)C4)ccc3n2)cc2cn(C)nc12 [Compound 1515, (R)-2-(6-hydroxy-2,7-dimethyl-2H-indazol-5-yl)-4-methyl-6-(4-azaspiro[2.5]octan-7-yl)pyrido[4,3-d]pyrimidin-5(6H)-one] | 100 to 1000 | 1000 to 10000 | 100 to 1000 | 100 to 1000 | –
18 | COc1cc(-c2ccc3c(=O)n([C@H]4CCN[C@@H](C)C4)ccc3n2)nn2cc(C)nc12 [Compound 1519, 2-(8-methoxy-2-methyl-imidazo[1,2-b]pyridazin-6-yl)-6-[(2S,4S)-2-methyl-4-piperidyl]-1,6-naphthyridin-5-one] | < 100 | 100 to 1000 | < 100 | < 100 | –
19 | Cc1cn2nc(-c3ccc4c(=O)n([C@@H]5CCN(C)[C@H](C)C5)ncc4n3)cc(C)c2n1 [Compound 1527] | 100 to 1000 | 100 to 1000 | 100 to 1000 | 100 to 1000 | –
20 | Cc1cn2nc(-c3ccc4c(=O)n([C@H]5CCN(C)[C@@H](C)C5)ncc4n3)cc(C)c2n1 [Compound 1528, 2-(2,8-dimethylimidazo[1,2-b]pyridazin-6-yl)-6-(1,2-dimethyl-4-piperidyl)pyrido[2,3-d]pyridazin-5-one] | 100 to 1000 | 100 to 1000 | 100 to 1000 | 100 to 1000 | –
21 | CCN1CC[C@@H](n2ncc3nc(-c4cc(C)c5nc(C)cn5n4)ccc3c2=O)CC12CC2 [Compound 1530] | < 100 | < 100 | < 100 | < 100 | –
22 | CCN1CC[C@H](n2ncc3nc(-c4cc(C)c5nc(C)cn5n4)ccc3c2=O)CC12CC2 [Compound 1531] | 100 to 1000 | 100 to 1000 | < 100 | < 100 | –
23 | Cc1cn2nc(-c3ccc4c(=O)n([C@H]5CCN(C)C6(CC6)C5)ncc4n3)cc(C)c2n1 [Compound 1533] | 100 to 1000 | 100 to 1000 | < 100 | < 100 | –
24 | Cc1cn2nc(-c3ccc4c(=O)n([C@@H]5CCN(C)C6(CC6)C5)ncc4n3)cc(C)c2n1 [Compound 1534] | < 100 | < 100 | < 100 | < 100 | –
25 | Cc1cn2nc(-c3ccc4c(=O)n(C5CCN(CCO)C6(CC6)C5)ncc4n3)cc(C)c2n1 (centres unmarked) [Compound 1541, 2-(2,8-dimethylimidazo[1,2-b]pyridazin-6-yl)-6-[4-(2-hydroxyethyl)-4-azaspiro[2.5]octan-7-yl]pyrido-[2,3-d]pyridazin-5-one] | – | 100 to 1000 | < 100 | < 100 | 100 to 1000
26 | Cc1cn2nc(-c3ccc4c(=O)n(C5CCN(CCF)C6(CC6)C5)ncc4n3)cc(C)c2n1 (centres unmarked) [Compound 1542, 2-(2,8-dimethylimidazo[1,2-b]pyridazin-6-yl)-6-[4-(2-fluoroethyl)-4-azaspiro[2.5]octan-7-1]pyrido[2,3-d]pyridazin-5-one] | 100 to 1000 | 100 to 1000 | 100 to 1000 | 100 to 1000 | –
